Measured values reported in ChEMBL document CHEMBL4376834, “Discovery of 4H-Chromen-4-one Derivatives as a New Class of Selective Rho Kinase (ROCK) Inhibitors, which Showed Potent Activity in ex Vivo Diabetic Retinopathy Models” (J Med Chem, 2019).

Tests used:
[1] = target: Mitogen-activated protein kinase kinase kinase kinase 3 (Homo sapiens, UniProt Q8IVH8); experiment: Inhibition of recombinant human MAP4K3 (1 to 291 residues) using RLGRDKYKTLRQI as substrate incubated for 40 mins in presence of [gamma-33ATP by radiometric scintillation counting analysis
[2] = target: Serine/threonine-protein kinase PAK 5 (Homo sapiens, UniProt Q9P286); experiment: Inhibition of recombinant human PAK5 (425 to end residues) using RRRLSFAEPG as substrate measured after 40 mins in presence of [gamma33P]ATP by radiometric scintillation counting analysis
[3] = target: Tyrosine-protein kinase Lck (Homo sapiens, UniProt P06239); experiment: Inhibition of recombinant full length human LCK using […] as substrate after 40 mins in presence of [gamma-33ATP] by radiometric scintillation counting analysis
[4] = target: Ribosomal protein S6 kinase alpha-3 (Homo sapiens, UniProt P51812); experiment: Inhibition of recombinant human Rsk2 (2 to end residues) using KKKNRTLSVA as substrate incubated for 40 mins in presence of [gamma33P]ATP by radiometric scintillation counting analysis
[5] = target: Tyrosine-protein kinase ABL1 (Homo sapiens, UniProt P00519); experiment: Inhibition of human recombinant ABL1 (27 to end residues) using EAIYAAPFAKKK as substrate incubated for 40 mins in presence of [gamma-33P]ATP by radiometric scintillation counting analysis
[6] = Inhibition of recombinant human MARK1 V16E/T20S double mutant (2 to end residues) using KKKVSRSGLYRSP as substrate incubated for 40 mins in presence of [gamma-33ATP by radiometric scintillation counting analysis
[7] = target: Fibroblast growth factor receptor 1 (Homo sapiens, UniProt P11362, V561M); experiment: Inhibition of recombinant human FGFR1 V561M mutant (456 to 765 residues) using GGEEEEYFELVKK as substrate after 40 mins in presence of [gamma-33ATP] by radiometric scintillation counting analysis
[8] = target: Serine/threonine-protein kinase STK11 (Homo sapiens, UniProt Q15831); experiment: Inhibition of recombinant full length human LKB1 using LSNLYHQGKFLQT as substrate after 40 mins in presence of [gamma-33ATP] by radiometric scintillation counting analysis
[9] = target: Mitogen-activated protein kinase kinase kinase 2 (Homo sapiens, UniProt Q9Y2U5); experiment: Inhibition of recombinant full length human MEKK2 using myelin basic protein as substrate incubated for 40 mins in presence of [gamma-33ATP by radiometric scintillation counting analysis
[10] = target: Serine/threonine-protein kinase PLK3 (Homo sapiens, UniProt Q9H4B4); experiment: Inhibition of recombinant human Plk3 (19 to 301 residues) using casein as substrate incubated for 40 mins in presence of [gamma33P]ATP by radiometric scintillation counting analysis
CDK4/Cyclin D3 = CDK4/Cyclin D3 (Homo sapiens, UniProt P11802); experiment: Inhibition of recombinant full length human CDK4/CyclinD3 using Rb fragment as substrate incubated for 40 mins in presence of [gamma-33ATP] by radiometric scintillation counting analysis; format: protein-complex assay
Angiopoietin-1 receptor = Angiopoietin-1 receptor (Homo sapiens, UniProt Q02763, Q939H/Q940H); experiment: Inhibition of recombinant human TIE2 Q939H/Q940H double mutant (771 to end residues) using poly(Glu, Tyr) 4:1 as substrate incubated for 40 mins in presence of [gamma33P]ATP by radiometric scintillation counting analysis
Rhodopsin kinase GRK7 = Rhodopsin kinase GRK7 (Homo sapiens, UniProt Q8WTQ7); experiment: Inhibition of recombinant full length human GRK7 using casein as substrate after 40 mins in presence of [gamma-33ATP] by radiometric scintillation counting analysis
[11] = target: PI3-kinase p110-alpha/p85-alpha (Homo sapiens, UniProt P42336, E545K); experiment: Inhibition of recombinant human full length PI3K p110alpha/p85alpha E545K mutant using phosphatidylinositol 4,5-bisphosphate as substrate incubated for 40 mins in presence of [gamma33P]ATP by radiometric scintillation counting analysis; format: protein-complex assay
[12] = target: Muscle, skeletal receptor tyrosine-protein kinase (Homo sapiens, UniProt O15146); experiment: Inhibition of recombinant human MUSK (530 to end residues) using myelin basic protein as substrate measured after 40 mins in presence of [gamma33P]ATP by radiometric scintillation counting analysis
Ephrin type-A receptor 2 = Ephrin type-A receptor 2 (Homo sapiens, UniProt P29317); experiment: Inhibition of recombinant human EphA2 (596 to 900 residues) using poly(Glu, Tyr) 4:1 as substrate after 40 mins in presence of [gamma-33ATP] by radiometric scintillation counting analysis
[13] = target: G protein-coupled receptor kinase 6 (Homo sapiens, UniProt P43250); experiment: Inhibition of recombinant full length human GRK6 using casein as substrate after 40 mins in presence of [gamma-33ATP] by radiometric scintillation counting analysis
[14] = target: Serine/threonine-protein kinase Chk2 (Homo sapiens, UniProt O96017); experiment: Inhibition of recombinant human CHK2 (5 to end residues) using KKKVSRSGLYRSP as substrate incubated for 40 mins in presence of [gamma-33ATP] by radiometric scintillation counting analysis
[15] = Inhibition of activated recombinant human TEC F514V mutant (174 to end residues) using EFPIYDFLPAKKK as substrate incubated for 40 mins in presence of [gamma33P]ATP by radiometric scintillation counting analysis
[16] = target: Mitogen-activated protein kinase kinase kinase kinase 5 (Homo sapiens, UniProt Q9Y4K4); experiment: Inhibition of recombinant full length human MAP4K5 using myelin basic protein as substrate incubated for 40 mins in presence of [gamma-33ATP by radiometric scintillation counting analysis
[17] = target: Cyclin-dependent kinase 14/Cyclin-Y (Homo sapiens, UniProt O94921); experiment: Inhibition of recombinant full length human CDK14/cyclinY in presence of [gamma-33ATP] by radiometric scintillation counting analysis; format: protein-complex assay
[18] = target: Mitogen-activated protein kinase kinase kinase 7 (Homo sapiens, UniProt O43318); experiment: Inhibition of recombinant human TAK1 (1 to 303 residues) using casein as substrate incubated for 40 mins in presence of [gamma33P]ATP by radiometric scintillation counting analysis
[19] = target: Calcium/calmodulin-dependent protein kinase type 1G (Homo sapiens, UniProt Q96NX5); experiment: Inhibition of recombinant full length human CaMK1gamma using KKLRRTLSFAEPG as substrate incubated for 40 mins in presence of [gamma-33ATP] by radiometric scintillation counting analysis
[20] = target: Hepatocyte growth factor receptor (Homo sapiens, UniProt P08581, D1228N); experiment: Inhibition of recombinant human MET A1209G/V1290L/D1246N triple mutant (974 to end residues) using KKKGQEEEYVFIE as substrate incubated for 40 mins in presence of [gamma-33ATP by radiometric scintillation counting analysis
[21] = target: Tyrosine-protein kinase JAK3 (Homo sapiens, UniProt P52333); experiment: Inhibition of human recombinant JAK3 (781 to end residues) using GGEEEEYFELVKK as substrate after 40 mins by [gamma-33ATP] by radiometric scintillation counting analysis

Measured: IC50

Angiopoietin-1 receptor, sequence (Q02763 23-1124 Q939H/Q940H limits assumed): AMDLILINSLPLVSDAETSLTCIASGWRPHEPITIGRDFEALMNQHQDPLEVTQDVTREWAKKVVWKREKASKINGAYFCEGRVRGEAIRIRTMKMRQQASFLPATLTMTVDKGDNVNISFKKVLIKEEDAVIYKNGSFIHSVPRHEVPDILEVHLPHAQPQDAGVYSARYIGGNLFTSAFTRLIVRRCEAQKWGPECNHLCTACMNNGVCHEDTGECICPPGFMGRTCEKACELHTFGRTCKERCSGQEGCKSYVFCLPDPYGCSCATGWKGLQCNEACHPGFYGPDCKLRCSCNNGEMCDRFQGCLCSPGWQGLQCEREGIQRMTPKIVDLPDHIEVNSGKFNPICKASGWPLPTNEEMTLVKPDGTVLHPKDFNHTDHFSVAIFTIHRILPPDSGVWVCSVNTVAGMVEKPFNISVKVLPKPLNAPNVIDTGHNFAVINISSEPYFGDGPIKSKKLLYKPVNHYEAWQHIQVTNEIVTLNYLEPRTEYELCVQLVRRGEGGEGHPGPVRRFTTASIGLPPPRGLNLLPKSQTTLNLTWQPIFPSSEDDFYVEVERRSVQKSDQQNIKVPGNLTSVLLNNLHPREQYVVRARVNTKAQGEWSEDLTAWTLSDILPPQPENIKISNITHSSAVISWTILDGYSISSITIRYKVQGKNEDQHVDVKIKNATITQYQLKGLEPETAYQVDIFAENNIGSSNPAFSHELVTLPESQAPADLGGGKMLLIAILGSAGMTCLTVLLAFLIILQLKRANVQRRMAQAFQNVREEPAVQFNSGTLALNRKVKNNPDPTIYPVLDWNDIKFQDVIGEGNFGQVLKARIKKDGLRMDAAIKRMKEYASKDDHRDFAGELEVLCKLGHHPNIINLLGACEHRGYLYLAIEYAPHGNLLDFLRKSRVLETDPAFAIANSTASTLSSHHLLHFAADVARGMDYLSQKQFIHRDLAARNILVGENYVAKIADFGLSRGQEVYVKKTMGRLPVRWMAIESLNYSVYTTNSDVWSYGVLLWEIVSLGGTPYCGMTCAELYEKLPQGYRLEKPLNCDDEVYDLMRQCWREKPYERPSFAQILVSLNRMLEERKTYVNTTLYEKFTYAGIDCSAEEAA
CDK4/Cyclin D3, sequence (P11802 whole entry, the tested form may be a part): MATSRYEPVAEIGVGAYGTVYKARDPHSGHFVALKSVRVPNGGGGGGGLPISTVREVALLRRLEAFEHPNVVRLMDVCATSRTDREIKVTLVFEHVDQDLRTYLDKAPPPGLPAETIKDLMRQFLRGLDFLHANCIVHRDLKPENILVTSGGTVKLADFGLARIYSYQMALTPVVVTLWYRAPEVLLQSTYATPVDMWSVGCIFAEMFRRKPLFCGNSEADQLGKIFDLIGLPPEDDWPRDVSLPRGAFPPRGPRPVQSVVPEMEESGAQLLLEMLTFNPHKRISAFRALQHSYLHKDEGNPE
CDK4/Cyclin D3, sequence (P30281 whole entry, further chain, the tested form may be a part): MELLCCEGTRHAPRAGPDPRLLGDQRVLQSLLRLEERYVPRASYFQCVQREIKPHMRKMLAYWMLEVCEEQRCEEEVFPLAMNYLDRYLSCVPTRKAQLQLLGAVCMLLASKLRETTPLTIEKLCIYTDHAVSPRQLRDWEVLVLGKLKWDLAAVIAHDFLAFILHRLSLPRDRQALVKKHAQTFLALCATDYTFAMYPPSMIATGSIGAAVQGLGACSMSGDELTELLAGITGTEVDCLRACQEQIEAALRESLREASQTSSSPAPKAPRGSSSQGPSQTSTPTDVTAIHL
Ribosomal protein S6 kinase alpha-3, sequence (P51812 whole entry): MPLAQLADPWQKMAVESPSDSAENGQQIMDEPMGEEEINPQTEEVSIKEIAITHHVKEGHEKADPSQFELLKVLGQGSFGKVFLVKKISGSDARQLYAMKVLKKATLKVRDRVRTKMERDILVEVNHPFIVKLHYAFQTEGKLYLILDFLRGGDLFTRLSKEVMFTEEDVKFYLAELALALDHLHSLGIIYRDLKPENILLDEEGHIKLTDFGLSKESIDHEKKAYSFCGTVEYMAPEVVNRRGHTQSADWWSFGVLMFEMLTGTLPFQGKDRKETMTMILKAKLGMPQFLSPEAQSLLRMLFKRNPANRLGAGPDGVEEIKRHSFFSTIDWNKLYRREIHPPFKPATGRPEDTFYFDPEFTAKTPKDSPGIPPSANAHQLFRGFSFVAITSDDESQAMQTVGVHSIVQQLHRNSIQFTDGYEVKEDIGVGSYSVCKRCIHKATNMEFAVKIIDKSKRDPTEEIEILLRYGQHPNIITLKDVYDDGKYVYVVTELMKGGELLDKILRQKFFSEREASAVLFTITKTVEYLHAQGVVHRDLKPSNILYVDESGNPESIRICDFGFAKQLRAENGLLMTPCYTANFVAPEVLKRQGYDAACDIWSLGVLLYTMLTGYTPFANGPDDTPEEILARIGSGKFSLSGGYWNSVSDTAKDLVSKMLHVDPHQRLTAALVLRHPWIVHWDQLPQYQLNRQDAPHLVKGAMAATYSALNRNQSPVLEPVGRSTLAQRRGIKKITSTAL
Serine/threonine-protein kinase PAK 5, sequence (Q9P286 whole entry): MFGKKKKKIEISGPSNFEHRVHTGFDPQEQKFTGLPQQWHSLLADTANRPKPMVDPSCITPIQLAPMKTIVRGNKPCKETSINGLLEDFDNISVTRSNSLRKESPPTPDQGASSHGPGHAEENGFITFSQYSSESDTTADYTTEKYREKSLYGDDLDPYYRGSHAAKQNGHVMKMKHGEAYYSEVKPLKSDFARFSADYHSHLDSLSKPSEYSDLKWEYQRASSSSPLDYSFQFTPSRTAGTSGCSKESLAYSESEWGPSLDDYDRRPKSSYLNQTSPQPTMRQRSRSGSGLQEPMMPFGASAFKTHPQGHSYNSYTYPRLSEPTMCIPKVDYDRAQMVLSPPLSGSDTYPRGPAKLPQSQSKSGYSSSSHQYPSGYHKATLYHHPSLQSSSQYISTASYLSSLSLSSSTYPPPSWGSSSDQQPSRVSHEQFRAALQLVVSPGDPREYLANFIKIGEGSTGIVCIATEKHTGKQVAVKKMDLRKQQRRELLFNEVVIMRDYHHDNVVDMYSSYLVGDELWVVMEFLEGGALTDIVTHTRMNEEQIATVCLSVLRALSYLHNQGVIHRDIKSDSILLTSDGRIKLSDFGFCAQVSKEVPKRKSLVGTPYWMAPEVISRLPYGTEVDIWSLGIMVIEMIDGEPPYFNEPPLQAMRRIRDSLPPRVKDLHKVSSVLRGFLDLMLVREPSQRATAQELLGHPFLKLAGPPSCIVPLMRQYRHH
Fibroblast growth factor receptor 1, sequence (P11362 22-822 V561M limits assumed): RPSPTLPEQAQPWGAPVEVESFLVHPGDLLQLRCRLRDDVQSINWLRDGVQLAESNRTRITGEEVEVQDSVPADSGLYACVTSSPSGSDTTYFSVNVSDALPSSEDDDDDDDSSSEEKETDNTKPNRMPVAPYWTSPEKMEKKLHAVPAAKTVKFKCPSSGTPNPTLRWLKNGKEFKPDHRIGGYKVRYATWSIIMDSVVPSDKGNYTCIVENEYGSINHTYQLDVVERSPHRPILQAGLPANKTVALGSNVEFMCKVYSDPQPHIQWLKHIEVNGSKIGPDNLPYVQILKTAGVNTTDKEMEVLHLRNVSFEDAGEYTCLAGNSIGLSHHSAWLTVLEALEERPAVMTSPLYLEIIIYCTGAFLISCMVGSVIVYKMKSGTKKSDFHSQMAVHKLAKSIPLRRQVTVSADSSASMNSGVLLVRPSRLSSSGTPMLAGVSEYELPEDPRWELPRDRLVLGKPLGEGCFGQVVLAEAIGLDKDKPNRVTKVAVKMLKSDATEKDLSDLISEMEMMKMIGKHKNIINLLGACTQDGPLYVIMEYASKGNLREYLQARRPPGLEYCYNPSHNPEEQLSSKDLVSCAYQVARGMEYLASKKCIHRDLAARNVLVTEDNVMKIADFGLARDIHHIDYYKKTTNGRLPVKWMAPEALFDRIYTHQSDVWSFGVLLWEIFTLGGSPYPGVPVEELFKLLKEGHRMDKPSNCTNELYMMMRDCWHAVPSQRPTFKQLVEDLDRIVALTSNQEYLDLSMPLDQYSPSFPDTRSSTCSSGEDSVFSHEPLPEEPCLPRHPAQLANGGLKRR
Serine/threonine-protein kinase PLK3, sequence (Q9H4B4 whole entry, the tested form may be a part): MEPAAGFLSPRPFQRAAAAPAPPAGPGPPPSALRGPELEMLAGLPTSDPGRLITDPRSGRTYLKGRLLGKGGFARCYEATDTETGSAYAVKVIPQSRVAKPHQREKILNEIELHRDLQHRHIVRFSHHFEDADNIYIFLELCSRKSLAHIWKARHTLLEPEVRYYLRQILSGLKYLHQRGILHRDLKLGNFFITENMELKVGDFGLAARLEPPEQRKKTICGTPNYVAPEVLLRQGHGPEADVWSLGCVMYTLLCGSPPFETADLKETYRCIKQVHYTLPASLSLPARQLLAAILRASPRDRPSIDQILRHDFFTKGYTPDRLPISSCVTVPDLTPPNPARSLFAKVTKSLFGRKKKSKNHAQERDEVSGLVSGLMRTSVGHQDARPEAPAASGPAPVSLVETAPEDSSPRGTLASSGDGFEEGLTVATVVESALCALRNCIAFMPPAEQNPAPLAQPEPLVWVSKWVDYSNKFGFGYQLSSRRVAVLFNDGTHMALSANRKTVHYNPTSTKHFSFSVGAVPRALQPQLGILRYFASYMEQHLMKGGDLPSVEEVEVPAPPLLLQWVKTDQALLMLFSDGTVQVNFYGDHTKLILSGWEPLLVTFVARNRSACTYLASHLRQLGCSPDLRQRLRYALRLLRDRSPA
Serine/threonine-protein kinase STK11, sequence (Q15831 whole entry): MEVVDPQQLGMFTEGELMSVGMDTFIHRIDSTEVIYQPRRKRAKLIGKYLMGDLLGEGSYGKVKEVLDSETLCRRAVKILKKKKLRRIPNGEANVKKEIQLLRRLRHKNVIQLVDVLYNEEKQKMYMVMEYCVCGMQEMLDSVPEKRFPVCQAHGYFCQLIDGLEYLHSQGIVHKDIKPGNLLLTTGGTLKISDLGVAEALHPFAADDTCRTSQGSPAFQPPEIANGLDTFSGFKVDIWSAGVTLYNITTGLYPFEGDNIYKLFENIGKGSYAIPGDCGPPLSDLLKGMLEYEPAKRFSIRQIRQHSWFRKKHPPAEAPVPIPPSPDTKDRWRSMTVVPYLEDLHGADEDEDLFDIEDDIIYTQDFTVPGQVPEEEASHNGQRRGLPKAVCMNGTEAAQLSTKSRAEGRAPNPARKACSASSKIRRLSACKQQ

CN(C)c1ccc(C(=O)Nc2cccc(NC(=O)COc3ccc4c(=O)ccoc4c3)c2)cc1
> 10 µM: all assays above
